{"source": "the RepoRT retention time repository (doi:10.1016/j.scitotenv.2015.08.078)"}
{"assay": "RP, Waters ACQUITY UPLC BEH C18, 100 × 2.1 mm, 1.7 µm, 0.3 mL/min, estimated dead time 0.73 min; A: water + 0.1% formic acid, pH 3; B: methanol + 0.1% formic acid, pH 3; gradient (min/%B) 0/10 14/90 16/90 18/10", "details": "stereoisomer not certain", "units": {"LC retention time": "min"}}
{"smiles": "CCCOCC(=Nc1ccc(Cl)cc1C(F)(F)F)n1ccnc1", "note": "[Triflumizole]", "LC retention time": 12.7}
{"smiles": "CC1CC2C(C(O)CC3(C)C2CCC3(O)C(=O)CO)C2(C)C=CC(=O)C=C12", "note": "(stereo not drawn) [6a-Methylprednisolone]", "LC retention time": 9.42}
{"smiles": "C=CCC1=C(C)C(OC(=O)C2C(C=C(C)C)C2(C)C)CC1=O", "note": "(stereo not drawn) [Allethrin]", "LC retention time": 13.1}
{"smiles": "CC12Cc3cn[nH]c3CC1CCC1C2CCC2(C)C1CCC2(C)O", "note": "(stereo not drawn) [Stanozolol]", "LC retention time": 12}
{"smiles": "CCC(C)(C)C(=O)OC1CC(C)C=C2C=CC(C)C(CCC3CC(O)CC(=O)O3)C21", "note": "(stereo not drawn) [Simvastatin]", "LC retention time": 14.2}
{"smiles": "CCCCCc1cc(O)c2c(c1)OC(C)(C)C1CCC(C)=CC21", "note": "(stereo not drawn) [THC]", "LC retention time": 15.2}
{"smiles": "Cc1ccnc(NS(=O)(=O)c2ccc(N)cc2)n1", "note": "[Sulfamerazine]", "LC retention time": 2.75}
{"smiles": "CS(=O)(=O)c1ccc(C(=O)C2C(=O)CCCC2=O)c([N+](=O)[O-])c1", "note": "[Mesotrione]", "LC retention time": 5.53}
{"smiles": "CCS(=O)(=O)c1cccnc1S(=O)(=O)NC(=O)Nc1nc(OC)cc(OC)n1", "note": "[Rimsulfuron]", "LC retention time": 5.84}
{"smiles": "CCSCCSP(=O)(OC)OC", "note": "[Demeton-S-methyl]", "LC retention time": 7.56}
{"smiles": "CC(C)c1c(C(=O)Nc2ccccc2)c(-c2ccccc2)c(-c2ccc(F)cc2)n1CCC(O)CC(O)CC(=O)O", "note": "(stereo not drawn) [Atorvastatin]", "LC retention time": 12}
{"smiles": "CNC(=O)Oc1cc(C)c(S(C)=O)c(C)c1", "note": "(stereo not drawn) [Methiocarb sulfoxide]", "LC retention time": 4.6}
{"smiles": "O=C(NC(=O)c1c(F)cccc1F)Nc1ccc(Oc2ccc(C(F)(F)F)cc2Cl)cc1F", "note": "[Flufenoxuron]", "LC retention time": 13.5}
{"smiles": "CCCCC(CC)COC(=O)c1ccccc1C(=O)OCC(CC)CCCC", "note": "(stereo not drawn) [Bis-(2-ethylhexyl) phthalate]", "LC retention time": 15.3}
{"smiles": "CCOP(=O)(Sc1ccccc1)Sc1ccccc1", "note": "[Edifenphos]", "LC retention time": 11.7}
{"smiles": "O=C(NC(=O)c1c(F)cccc1F)Nc1cc(Cl)c(Oc2ncc(C(F)(F)F)cc2Cl)c(Cl)c1", "note": "[Chlorfluazuron]", "LC retention time": 13.9}
{"smiles": "COc1c(N2CC3CCCNC3C2)c(F)cc2c(=O)c(C(=O)O)cn(C3CC3)c12", "note": "(stereo not drawn) [Moxifloxacin]", "LC retention time": 5.23}
{"smiles": "CS(=O)(=O)c1ccc(C(O)C(CO)NC(=O)C(Cl)Cl)cc1", "note": "(stereo not drawn) [Thiamphenicol]", "LC retention time": 3.6}
{"smiles": "Cc1cccc2sc3nncn3c12", "note": "[Tricyclazole]", "LC retention time": 6.05}
{"smiles": "CCOC1Oc2ccc(OS(C)(=O)=O)cc2C1(C)C", "note": "(stereo not drawn) [Ethofumesate]", "LC retention time": 9.89}
{"smiles": "CCNc1nc(NC(C)(C)C)nc(SC)n1", "note": "[Terbutryn]", "LC retention time": 9.91}
{"smiles": "CC(C)(C)c1ccc(CSc2cnn(C(C)(C)C)c(=O)c2Cl)cc1", "note": "[Pyridaben]", "LC retention time": 14}
{"smiles": "CC(=O)c1ccc2c(c1)N(CCCN(C)C)c1ccccc1S2", "note": "[Acepromazine]", "LC retention time": 8.97}
{"smiles": "COP(=S)(OC)SCC(=O)N(c1ccc(Cl)cc1)C(C)C", "note": "[Anilofos]", "LC retention time": 11.7}
{"smiles": "Cn1c([N+](=O)[O-])cnc1CO", "note": "[HMMNI (Hydroxy Dimetridazole)]", "LC retention time": 2.23}
{"smiles": "CC(C)c1ccc(NC(=O)N(C)C)cc1", "note": "[Isoproturon]", "LC retention time": 9.6}
{"smiles": "CCNc1nc(NC(C)C)nc(SC)n1", "note": "[Ametryn]", "LC retention time": 9.9}
{"smiles": "CC(C)=NOCCOC(=O)C(C)Oc1ccc(Oc2cnc3cc(Cl)ccc3n2)cc1", "note": "(stereo not drawn) [Propaquizafop]", "LC retention time": 12.9}
{"smiles": "O=C(O)Cn1c(=O)sc2cccc(Cl)c21", "note": "[Benazolin]", "LC retention time": 4.59}
{"smiles": "CCC(C)n1c(=O)[nH]c(C)c(Br)c1=O", "note": "(stereo not drawn) [Bromacil]", "LC retention time": 7.96}
{"smiles": "CCC(c1ccc(O)cc1)C(CC)c1ccc(O)cc1", "note": "(stereo not drawn) [Hexestrol]", "LC retention time": 11.3}
{"smiles": "O=C(NC(=O)c1c(F)cccc1F)Nc1ccc(CON=C(c2ccc(Cl)cc2)C2CC2)cc1", "note": "[Flucycloxuron]", "LC retention time": 13.4}
{"smiles": "CNc1cnn(-c2cccc(C(F)(F)F)c2)c(=O)c1Cl", "note": "[Norflurazon]", "LC retention time": 9.22}
{"smiles": "CCOc1ccccc1OS(=O)(=O)NC(=O)Nc1nc(OC)cc(OC)n1", "note": "[Ethoxysulfuron]", "LC retention time": 8.41}
{"smiles": "COP(=S)(OC)Oc1c(Cl)cc(C)cc1Cl", "note": "[Tolclofos-methyl]", "LC retention time": 12.1}
{"smiles": "CCNC(C)Cc1ccc2c(c1)OCO2", "note": "(stereo not drawn) [MDEA]", "LC retention time": 4.27}
{"smiles": "COP(=O)(OC)C(O)C(Cl)(Cl)Cl", "note": "(stereo not drawn) [Trichlorfon]", "LC retention time": 4.7}
{"smiles": "CCOC(=O)c1cnn(C)c1S(=O)(=O)NC(=O)Nc1nc(OC)cc(OC)n1", "note": "[Pyrazosulfuron-ethyl]", "LC retention time": 7.91}
{"smiles": "COCC1OC(=O)c2coc3c2C1(C)C1=C(C3=O)C2CCC(=O)C2(C)CC1OC(C)=O", "note": "(stereo not drawn) [Wortmannin]", "LC retention time": 7.75}
{"smiles": "CC(C)N1C(=O)N(c2ccccc2)CSC1=NC(C)(C)C", "note": "[Buprofezin]", "LC retention time": 13.1}
{"smiles": "CC(C)(C)N(NC(=O)c1ccc(Cl)cc1)C(=O)c1ccccc1", "note": "[Halofenozide]", "LC retention time": 9.91}
{"smiles": "Nc1ccc(S(=O)(=O)Nc2ccccn2)cc1", "note": "[Sulfapyridine]", "LC retention time": 2.55}
{"smiles": "COP(=O)(OC)Oc1ccc(S(C)=O)c(C)c1", "note": "(stereo not drawn) [Fenoxon sulfoxide]", "LC retention time": 5.14}
{"smiles": "CCOP(=S)(OCC)Oc1ccc(=O)n(-c2ccccc2)n1", "note": "[Pyridaphenthion]", "LC retention time": 12.1}
{"smiles": "CCNc1nc(Cl)nc(NC(C)(C)C#N)n1", "note": "[Cyanazine]", "LC retention time": 7.05}
{"smiles": "c1ccc(Nc2ccccc2)cc1", "note": "[Diphenylamine]", "LC retention time": 10.5}
{"smiles": "CC1=CC2OC3C(O)CC(C)(C34CO4)C2(CO)C(O)C1=O", "note": "(stereo not drawn) [Deoxynivalenol]", "LC retention time": 2.83}
{"smiles": "Nc1cnn(-c2ccccc2)c(=O)c1Cl", "note": "[Chloridazon (Pyrazon)]", "LC retention time": 4.82}
{"smiles": "CNC(=O)ON=CC(C)(C)S(C)=O", "note": "(stereo not drawn) [Aldicarb sulfoxide]", "LC retention time": 2.54}
{"smiles": "CCCCCCCCC=CC1CCC(=O)O1", "note": "(stereo not drawn) [japonilure]", "LC retention time": 9.82}
{"smiles": "Cc1ncc([N+](=O)[O-])n1C", "note": "[Dimetridazole]", "LC retention time": 2.68}
{"smiles": "C=CC=CCC1=C(C)C(OC(=O)C2C(C=C(C)C)C2(C)C)CC1=O", "note": "(stereo not drawn) [Pyrethrin I]", "LC retention time": 13.7}
{"smiles": "CCOP(=O)(SC(C)CC)SC(C)CC", "note": "(stereo not drawn) [Cadusafos]", "LC retention time": 12.2}
{"smiles": "CCOC(=O)C(CCc1ccccc1)NC(C)C(=O)N1CCCC1C(=O)O", "note": "(stereo not drawn) [Enalapril]", "LC retention time": 7.86}
{"smiles": "COC(=O)C(C)N(C(=O)c1ccco1)c1c(C)cccc1C", "note": "(stereo not drawn) [Furalaxyl]", "LC retention time": 10}
{"smiles": "COCCN(C(=O)CCl)c1c(C)cccc1C", "note": "[Dimethachlor]", "LC retention time": 9.39}
{"smiles": "CCCCC(O)(Cn1cncn1)c1ccc(Cl)cc1Cl", "note": "(stereo not drawn) [Hexaconazole]", "LC retention time": 12}
{"smiles": "CN(CC=CC#CC(C)(C)C)Cc1cccc2ccccc12", "note": "[Terbinafine]", "LC retention time": 13.7}
{"smiles": "CC(C)c1cc(Oc2ccccc2)cc(C(C)C)c1NC(=S)NC(C)(C)C", "note": "[Diafenthiuron]", "LC retention time": 13.7}
{"smiles": "Nc1ccc(Cl)c(Cl)c1", "note": "[3.4-dichloroaniline]", "LC retention time": 7.98}
{"smiles": "CC(=O)Nc1c(C)n(C)n(-c2ccccc2)c1=O", "note": "[4-Acetylamino-Antipyrine]", "LC retention time": 3.87}
{"smiles": "CNC(=O)Oc1cccc2c1OC(C)(C)O2", "note": "[Bendiocarb]", "LC retention time": 7.43}
{"smiles": "CC1(C(=O)Nc2ccc(O)c(Cl)c2Cl)CCCCC1", "note": "[Fenhexamid]", "LC retention time": 11.5}
{"smiles": "CC(=O)OCC(=O)C1(O)CCC2C3CCC4=CC(=O)C=CC4(C)C3C(O)CC21C", "note": "(stereo not drawn) [Prednisolone 21-acetate]", "LC retention time": 9.54}
{"smiles": "Fc1ccc(C2CCNCC2COc2ccc3c(c2)OCO3)cc1", "note": "(stereo not drawn) [Paroxetine]", "LC retention time": 9.22}
{"smiles": "CC(C)NC(=O)N1CC(=O)N(c2cc(Cl)cc(Cl)c2)C1=O", "note": "[Iprodione]", "LC retention time": 11.9}
{"smiles": "CCCSP(=O)(OCC)Oc1cnn(-c2ccc(Cl)cc2)c1", "note": "(stereo not drawn) [Pyraclofos]", "LC retention time": 12}
{"smiles": "CNC(C)C(=O)c1ccccc1", "note": "(stereo not drawn) [Methcathinone]", "LC retention time": 2.95}
{"smiles": "CC1=C(C(=O)Nc2ccccc2)S(=O)(=O)CCO1", "note": "[Oxycarboxin]", "LC retention time": 5.41}
{"smiles": "CON(C)C(=O)Nc1ccc(Cl)cc1", "note": "[Monolinuron]", "LC retention time": 8.07}
{"smiles": "CC1CCCC(=O)CCCC=Cc2cc(O)cc(O)c2C(=O)O1", "note": "(stereo not drawn) [Zearalenone]", "LC retention time": 10.5}
{"smiles": "COP(=O)(OC)SCn1c(=O)oc2cc(Cl)cnc21", "note": "[Azamethiphos]", "LC retention time": 7.22}
{"smiles": "NC(=NN=Cc1ccc(Cl)cc1)NN=Cc1ccc(Cl)cc1", "note": "[Robenidine]", "LC retention time": 10.9}
{"smiles": "CON(C)C(=O)Nc1ccc(Br)cc1", "note": "[Metobromuron]", "LC retention time": 8.53}
{"smiles": "COCc1cnc(C2=NC(C)(C(C)C)C(=O)N2)c(C(=O)O)c1", "note": "(stereo not drawn) [Imazamox]", "LC retention time": 3.21}
{"smiles": "CC(C1CC1)C(O)(Cn1cncn1)c1ccc(Cl)cc1", "note": "(stereo not drawn) [Cyproconazole I]", "LC retention time": 10.5}
{"smiles": "CCCCC(C)C(OC(=O)CC(CC(=O)O)C(=O)O)C(CC(C)CCCCCCC(O)CC(O)C(C)N)OC(=O)CC(CC(=O)O)C(=O)O", "note": "(stereo not drawn) [Fumonisin B2]", "LC retention time": 11}
{"smiles": "CCn1cc(C(=O)O)c(=O)c2cc3c(cc21)OCO3", "note": "[Oxolinic acid]", "LC retention time": 6.58}
{"smiles": "CCCCCc1cc(O)c2c(c1)OC(C)(C)C1CC=C(C(=O)O)CC21", "note": "(stereo not drawn) [THC-COOH]", "LC retention time": 13.9}
{"smiles": "CN1COCN(Cc2cnc(Cl)s2)C1=N[N+](=O)[O-]", "note": "[Thiamethoxam]", "LC retention time": 3.27}
{"smiles": "CCOP(=S)(OCC)Oc1nc(Cl)n(C(C)C)n1", "note": "[Isazophos]", "LC retention time": 10.8}
{"smiles": "C#CC(C)(C)NC(=O)c1cc(Cl)cc(Cl)c1", "note": "[Propyzamide]", "LC retention time": 10.3}
{"smiles": "CC1(C)OC2CC3C4CCC5=CC(=O)C=CC5(C)C4(F)C(O)CC3(C)C2(C(=O)CO)O1", "note": "(stereo not drawn) [Triamcinolone acetonide]", "LC retention time": 9.42}
{"smiles": "CCOC(=O)C1C(OC(=O)c2ccccc2)CC2CCC1N2C", "note": "(stereo not drawn) [Cocaethylene]", "LC retention time": 6.53}
{"smiles": "CCn1cc(C(=O)O)c(=O)c2cc(F)c(N3CCN(C)CC3)cc21", "note": "[Pefloxacin]", "LC retention time": 4.09}
{"smiles": "O=c1c2cc(F)ccc2nc(-n2cncn2)n1-c1ccc(Cl)cc1Cl", "note": "[Fluquinconazole]", "LC retention time": 10.7}
{"smiles": "COc1ccc(NC(=O)N(C)C)cc1Cl", "note": "[Metoxuron]", "LC retention time": 6.3}
{"smiles": "CCOP(=S)(OCC)OP(=S)(OCC)OCC", "note": "[Sulfotep]", "LC retention time": 11.5}
